The results in this text go back to patent publication US12091398B2, “PD-L1 antagonist compound” (ADLAI NORTYE BIOPHARMA CO., LTD., priority 2019, dated 2024).

Structures are written as SMILES.

For this test, the system named is PD-1/PD-L1 interaction. Put plainly: Cell based PD-1/PD-L1 NFAT reporter assay. The arrangement: species or system human. Particulars: Homo sapiens, 6 h, PD-1/NFAT-Reporter-Jurkat cells co-cultured with TCR activator/PD-L1-CHO cells; 6 hour incubation; luciferase; calibrated to Atezolizumab 10 nM; read-out: Absolute EC50. As for the experimental part: Cell Based PD-1/PD-L1 NFAT Reporter Assay
Compounds of the present patent were tested in a cell based PD-1/PD-L1 NFAT reporter assay.
The cell-based luciferase reporter assay is used for monitoring the PD-1/PD-L1 inhibitor by characterizing the biological activity of PD-1: PD-L1 interactions in cellular context. PD-1/NFAT-Reporter-Jurkat cells stably over-expressing human PD-1 with NFAT reporter are used as effector cells. TCR activator/PD-L1—CHO cells over-expressing PD-L1 and an engineered T cell receptor (TCR) activator are used as target cells. When these two cells are co-cultivated, TCR complexes on effector cells are activated by TCR activator on target cells, resulting in expression of the NFAT luciferase reporter. However, PD1 and PD-L1 (or PD-L2) ligation prevents TCR activation and suppresses the NFAT-responsive luciferase activity. This inhibition can be specifically reversed by anti-PD1 or anti-PD-L1 inhibitors. PD1/PD-L1 inhibitors block PD1:PD-L1 interaction and promote TCR activation, resulting in reactivation of the NFAT responsive luciferase reporter.
PD-1/NFAT—Reporter—Jurkat cell (Cat: 60535) and TCR activator/PD-L1—CHO cell (Cat: 60536) were purchased from BPS Bioscience. Anti-human PD-L1 antibody (Atezolizumab, Cat: A2004) was purchased from Selleck; luciferase reporter gene expression detection kit (ONE-Glo™ Luciferase Assay System, Cat: E6120) was purchased from Promega; multifunction plate reader (SpectraMax i3x) was purchased from Molecular Devices.
PD-1/NFAT—Reporter—Jurkat cells and TCR activator/PD-L1—CHO cells were cultured in recommended media respectively.
Harvest TCR activator/PD-L1-CHO cells from culture and seed cells at a density of 35,000 cells per well into 96-well microplate in 100 µl of growth medium. Incubate cells at 37° C. in a CO2 incubator overnight. Next day, discard the culture media, add diluted compound in assay medium for 30 min. Anti-PD-L1 antibody (Atezolizumab, final concentration 10 nM) and 0.1% DMSO were the positive and negative control, respectively. Harvest the PD-1/NFAT-reporter-Jurkat cells by centrifugation and add to the wells. After 6 hour incubation, perform luciferase assay using the ONE-Glo™ Luciferase Assay System, following the manufacturer's assay protocol.
Anti-PD-L1 antibody (Atezolizumnab, 10 nM) was used as positive control to calibrate the inhibition rate using the following equation: % inhibition=(Sample luminescence/Average vehicle group luminescence−1)/(Average PD-L1 group luminescence/Average vehicle group luminescence−1)×100%.
On the technique in general: A reporter such as luciferase makes a cellular process visible.
As a reminder, the EC50 is the concentration needed to bring the measured effect to its halfway point. Consider `O=C(O)[C@H](CO)NCc1cc(Cl)c(OCc2cccc(-c3cccc4c3cnn4CCCCN3CC[C@@H](O)C3)c2Br)cc1OCC1CCOCC1` [Compound 45], for which the EC50 was 2.72 µM.

As for `CN1CCC(COc2cc(OCc3cccc(-c4cccc5c4cnn5CCCCN4CC[C@@H](O)C4)c3Br)c(Cl)cc2CN[C@@H](CO)C(=O)O)CC1` [Compound 46], the EC50 was found to be 0.846 µM.

On to `O=C1CC[C@@H](COc2cc(OCc3cccc(-c4cccc5c4cnn5CCCCN4CC[C@@H](O)C4)c3Br)c(Cl)cc2CN[C@@H](CO)C(=O)O)N1` [Compound 47], for which the EC50 came out at 0.261 µM.

As to `O=C1CC(COc2cc(OCc3cccc(-c4cccc5c4cnn5CCCCN4CC[C@@H](O)C4)c3Br)c(Cl)cc2CN[C@@H](CO)C(=O)O)CN1` (stereo partly shown) [Compound 48], the EC50 was 0.997 µM.

As for `O=C(O)[C@H](CO)NCc1cc(Cl)c(OCc2cccc(-c3cccc4c3cnn4CCCCN3CC[C@@H](O)C3)c2Br)cc1OCC(=O)N1CC[C@@H](O)C1` [Compound 49, (4-((2-bromo-3-(1-(4-((R)-3-hydroxypyrrolidin-1-yl)butyl)-1H-indazol-4-yl)benzyl)oxy)-5-chloro-2-(2-((R)-3-hydroxypyrrolidin-1-yl)-2-oxoethoxy)benzyl)-L-serine], the EC50 was more than 10 µM.

As for `CCNC(=O)COc1cc(OCc2cccc(-c3cccc4c3cnn4CCCCN3CC[C@@H](O)C3)c2Br)c(Cl)cc1CN[C@@H](CO)C(=O)O` [Compound 50], the EC50 was determined as 2.82 µM.

Turning to `NC(=O)CNC(=O)COc1cc(OCc2cccc(-c3cccc4c3cnn4CCCCN3CC[C@@H](O)C3)c2Br)c(Cl)cc1CN[C@@H](CO)C(=O)O` [Compound 51], the EC50 amounted to 3.08 µM.

For the compound `CN(C)CCNC(=O)COc1cc(OCc2cccc(-c3cccc4c3cnn4CCCCN3CC[C@@H](O)C3)c2Br)c(Cl)cc1CN[C@@H](CO)C(=O)O` [Compound 52], the EC50 is more than 10 µM.

Regarding `COCCNC(=O)COc1cc(OCc2cccc(-c3cccc4c3cnn4CCCCN3CC[C@@H](O)C3)c2Br)c(Cl)cc1CN[C@@H](CO)C(=O)O` [Compound 53], the EC50 was more than 10 µM.

Turning to `Cc1c(OCCCN2CC[C@@H](O)C2)cccc1-c1cccc2c1cnn2Cc1cc(OCc2cncc(C#N)c2)c(CN[C@@H](CO)C(=O)O)cc1Cl` [Compound 54, (5-chloro-2-((5-cyanopyridin-3-yl)methoxy)-4-((4-(3-(3-((R)-3-hydroxypyrrolidin-1-yl)propoxy)-2-methylphenyl)-1H-indazol-1-yl)methyl)benzyl)-L-serine], the EC50 was determined as 0.339 µM.

For the compound `N#Cc1cncc(COc2cc(Cn3ncc4c(-c5cccc(OCCCN6CC[C@@H](O)C6)c5Br)cccc43)c(Cl)cc2CN[C@@H](CO)C(=O)O)c1` [Compound 55, (4-((4-(2-bromo-3-(3-((R)-3-hydroxypyrrolidin-1-yl)propoxy)phenyl)-1H-indazol-1-yl)methyl)-5-chloro-2-((5-cyanopyridin-3-yl)methoxy)benzyl)-L-serine], the EC50 was 1.15 µM.

For the compound `COc1cc(OCc2cccc(-c3cccc4c3cnn4Cc3cc(OCc4cncc(C#N)c4)c(CN[C@@H](CO)C(=O)O)cc3Cl)c2C)c(Cl)cc1CN[C@@H](CO)C(=O)O` [Compound 56, (4-((3-(1-(4-((((S)-1-carboxy-2-hydroxyethyl)amino)methyl)-2-chloro-5-((5-cyanopyridin-3-yl)methoxy)benzyl)-1H-indazol-4-yl)-2-methylbenzyl)oxy)-5-chloro-2-methoxybenzyl)-L-serine], the EC50 was found to be 0.163 µM.

As to `Cc1c(COc2cc(OCc3cncc(C#N)c3)c(CN[C@@H](CO)C(=O)O)cc2Cl)cccc1-c1cccc2c1cnn2Cc1cc(OCc2cncc(C#N)c2)c(CN[C@@H](CO)C(=O)O)cc1Cl` [Compound 57, (4-((3-(1-(4-((((S)-1-carboxy-2-hydroxyethyl)amino)methyl)-2-chloro-5-((5-cyanopyridin-3-yl)methoxy)benzyl)-1H-indazol-4-yl)-2-methylbenzyl)oxy)-5-chloro-2-((5-cyanopyridin-3-yl)methoxy)benzyl)-L-serine], the EC50 turned out to be 0.053 µM.

`N#Cc1cncc(COc2cc(OCc3cccc(-c4cccc5c4cnn5Cc4ccc(CN[C@@H](CO)C(=O)O)cc4)c3Br)c(Cl)cc2CN[C@@H](CO)C(=O)O)c1` [Compound 58, (4-((4-(2-bromo-3-((4-((((S)-1-carboxy-2-hydroxyethyl)amino)methyl)-2-chloro-5-((5-cyanopyridin-3-yl)methoxy)phenoxy)methyl)phenyl)-1H-indazol-1-yl)methyl)benzyl)-L-serine]: the EC50 was found to be 1.71 µM.

Take `N#Cc1cncc(COc2cc(OCc3cccc(-c4cccc5c4cnn5Cc4ccc(CN[C@@H](CO)C(=O)O)cc4Cl)c3Br)c(Cl)cc2CN[C@@H](CO)C(=O)O)c1` [Compound 59, (4-((4-(2-bromo-3-((4-((((S)-1-carboxy-2-hydroxyethyl)amino)methyl)-2-chloro-5-((5-cyanopyridin-3-yl)methoxy)phenoxy)methyl)phenyl)-1H-indazol-1-yl)methyl)-3-chlorobenzyl)-L-serine]: the concentration for a half-maximal effect (EC50) is 0.22 µM.

Consider `CC(CO)(CO)NCc1cc(Cl)c(Cn2ncc3c(-c4cccc5c4cnn5CCCN4CC[C@@H](O)C4)cccc32)cc1OCc1cncc(C#N)c1` [Compound 60, (R)-5-((4-chloro-2-(((1,3-dihydroxy-2-methylpropan-2-yl)amino)methyl)-5-((1′-(3-(3-hydroxypyrrolidin-1-yl)propyl)-1H,1′H-[4,4′-biindazol]-1-yl)methyl)phenoxy)methyl)nicotinonitrile], for which the EC50 came to 1.85 µM.

Regarding `N#Cc1cncc(COc2cc(Cn3ncc4c(-c5cccc6c5cnn6Cc5cc(OCc6cncc(C#N)c6)c(CN[C@@H](CO)C(=O)O)cc5Cl)cccc43)c(Cl)cc2CN[C@@H](CO)C(=O)O)c1` [Compound 61, (2S,2'S)-2,2′-((((1H,1′H-[4,4′-biindazole]-1,1′-diylbis(methylene))bis(5-chloro-2-((5-cyanopyridin-3-yl)methoxy)-4,1-phenylene))bis(methylene))bis(azanediyl))bis(3-hydroxypropanoic acid)], the EC50 is 0.124 µM.

As for `Cc1c(COc2cc(OCc3cncc(C#N)c3)c(CN[C@@H](CO)C(=O)OC(C)C)cc2Cl)cccc1-c1cccc2c1cnn2Cc1cc(OCc2cncc(C#N)c2)c(CN[C@@H](CO)C(=O)O)cc1Cl` [Compound 64, (5-chloro-4-((4-(3-((2-chloro-5-((5-cyanopyridin-3-yl)methoxy)-4-((((S)-3-hydroxy-1-isopropoxy-1-oxopropan-2-yl)amino)methyl)phenoxy)methyl)-2-methylphenyl)-1H-indazol-1-yl)methyl)-2-((5-cyanopyridin-3-yl)methoxy)benzyl)-L-serine], the EC50 was 0.55 µM.

Consider `Cc1c(COc2cc(OCc3cncc(C#N)c3)c(CN[C@@H](CO)C(=O)O)cc2Cl)cccc1-c1cccc2c1cnn2Cc1cc(OCc2cncc(C#N)c2)c(CN[C@@H](CO)C(=O)OC(C)C)cc1Cl` [Compound 65, (5-chloro-4-((3-(1-(2-chloro-5-((5-cyanopyridin-3-yl)methoxy)-4-((((S)-3-hydroxy-1-isopropoxy-1-oxopropan-2-yl)amino)methyl)benzyl)-1H-indazol-4-yl)-2-methylbenzyl)oxy)-2-((5-cyanopyridin-3-yl)methoxy)benzyl)-L-serine], for which the EC50 was determined as 0.418 µM.
